The values below come from patent US9855320B2, “Angiogenin for treatment of glaucoma” (CHUNG-ANG UNIVERSITY INDUSTRY-ACADEMIC COOPERATION …, priority 2011, dated 2018).

The subject of one assay is normal white rat. Put plainly: Intraocular pressure change due to instillation in normal white rats (day-time and night-time). The assay is classed as in vivo. The protocol: (§1) White rats were grouped as a physiological saline solution instillation group, an angiogenin (recombinant human angiogenin, R&D systems, USA) 50 μg/ml instillation group, an angiogenin fragment (angiogenin 108-122, SEQ ID NO: 1, BACHEM, USA) instillation group, and a latanoprost 50 μg/ml instillation group, and each group consisted of 6 rats, that is, 12 eyes. Instillation test was repeatedly performed on normal rats and glaucoma model rats. Ophthalmic agent was administered at 8 AM and 8 PM in an amount of 4 μl to compare day-time effects and night-time effects, and 1, 3, 6, 9, 12, and 24 hours after the instillation, intraocular pressure was measured.

For a further assay, the system named is glaucoma white rats. The assay can be described thus: Intraocular pressure change due to instillation in glaucoma white rats (day-time and night-time). It is filed as in vivo, rat. The note with it: day-time test and night-time test. The protocol: Male white rats were used to prepare an episcleral venous ablation glaucoma model. The rat was anesthetized and a limbus periphery was divided into four portions, each of which was then subjected to 2 mm dissection at an interval of 90 degrees, and then, two radial conjunctival excisions were performed on upper dissection periphery. […] Episcleral vein is distinguishable because it is located […] than extra ocular muscle, has relatively low fluidity and a relatively large diameter, contains darker blood in vessel, and is connected to peripheral venous plexus. After surgical isolation of vein, the vein was lifted up by using 3 mm-width wooden spatula to be spaced apart from the peripheral tissue, and then, was subjected to electric ablation while being careful for the peripheral tissue not to have any thermal injury or any mechanical injury due to the contact. After the operation, a chloramphenical ophthalmic agent was administered thereto. Intraocular pressure was consecutively measured three or more times by using Tonopen (Solan, Fla., USA), and only reliable intraocular pressure values within 5% or less were recorded. Only used were rats that had higher intraocular pressure than that before the operation by 5 mmHg or more when measured on the first day, the third day, one week and two weeks before and after operation.
Also, steroid-induced glaucoma model was prepared as follows: 1% prednisolone was instilled twice a day in an amount of 4 μl for 30 days, and only rats that had higher intraocular pressure by 5 mmHg or more before operation were used.
as §1

Assay [1] concerns nitric oxide (NO) concentration in aqueous humor. Put plainly: NO concentration in aqueous humor after instillation (Griess assay). The assay is classed as in vivo, rat. The note with it: 50 μg/ml, rank among instillation groups. As to the method: Normal rat models were divided into 4 groups, each group consisting of 6 rats, that is, 12 eyes, and at 8 AM and 8 PM, each group was instilled with angiogenin 50 μg/ml, angiogenin fragment 50 μg/ml, and latanoprost 50 μg/ml, and 1, 3, and 6 hours after instillation, 15 to 20 μl of aqueous humor was extracted from two rats, that is, 4 eyes for each group. For the extraction of aqueous humor, first, rats were anesthetized, and then, corneal dissection was performed in a direction from at 9 o'clock outside each eye toward microkeratome, and then, a capillary tube was brought into contact through a dissection wound to absorb aqueous humor, which was then moved to an eppendroff tube and frozen-preserved at a temperature of −70 degrees. Thereafter, nitric oxide (NO) concentration in aqueous humor was measured by Griess assay (nitric oxide colorimetric assay kit, Biovision, USA). The aqueous humor was diluted 10 times and then mixed with the same amount of griess solution and reacted together for 10 minutes. The reaction product was moved onto a well plate and then, absorbance of nitrate, which is a NO formation reactant, was measured by using spectrophotometer at a wavelength of 540 nm and compared with a reference value to quantify the nitrate.
Background: The Griess reaction detects nitrite, a stable product of nitric oxide.

A further assay has as its system angiogenin. Put plainly: Angiogenin concentration change in human tear after Latanoprost instillation (ELISA array). The assay is classed as in vivo. As to the method:
Angiogenin concentration change in tears due to long-, short-term instillation of […] Latanoprost (Xalatan; Pfizer Inc., New York, N.Y., USA) was assayed by using ELISA kit (Custom Cytokine Human Antibody Array, RayBiotech). Short-term tear component change assay was performed as follows: 12 people, that is, 24 eyes were instilled with […] Latanoprost and then, angiogenin concentration in tear was qualitatively assayed before instillation and 6 hours after instillation. Long-term tear component change assay was performed as follows: 10 people, that is, 20 eyes, who were newly diagnosed with glaucoma were instilled with […] Latanoprost instillation for two months once a day, and then, angiogenin concentration in tear was analyzed before and after instillation. […] After washing, the result was reacted in a detection buffer solution provided by the manufacturer for 2 minutes, and then, the membrane was exposed to an X-ray film for 40 seconds, and an image thereof was obtained by using Quantity one software(Bio-Rad Lab., Hercules, Calif., USA), and chemiluminescent assay was performed thereon for qualitativeness.
A general note: An ELISA detects its analyte on a solid surface through an enzyme-linked reagent.

As for “angiogenin fragment: C-terminal fragment of angiogenin, angiogenin 108-122, SEQ ID NO: 1 (BACHEM) (ENGLPVHLDQSIFRR; listed as Homo sapiens)”, the “time after instillation up to which significant intraocular pressure reduction was maintained” value with normal white rat (day-time instillation) is listed as “up to 6 hours”; in the assay on normal white rat (night-time instillation), “up to 12 hours”. In the assay with normal white rat (day-time instillation, one hour after instillation), the “average intraocular pressure reduction” value is −2.9±0.4 mmHg. Further, in the assay on normal white rat (night-time instillation, 1 hour after the instillation), the intraocular pressure reduction was −3.4±0.6 mmHg. Besides, the “course of intraocular pressure reduction effects after the first hour (in words)” value with glaucoma white rats (later than one hour after instillation) is “rapidly diminished at the highest speed from among all of the groups”. Also, in the assay with glaucoma white rats (one hour after instillation), the “intraocular pressure reduction effects (in words)” value was “excellent intraocular pressure reduction effects”. For the same molecule, the “NO concentration increase in aqueous humor” value in assay [1] (1 hour after the initial instillation, day-time and night-time test) is “ranked the second”.

As to `CC(C)OC(=O)CCC/C=C\C[C@@H]1[C@@H](CC[C@@H](O)CCc2ccccc2)[C@H](O)C[C@@H]1O` [latanoprost, reference compound], the “time after instillation up to which significant intraocular pressure reduction was maintained” value in the assay with normal white rat (day-time instillation) is reported as “up to 12 hours”. In addition, in the assay with normal white rat (day-time instillation, 50 μg/ml, 3 hours after the instillation), the intraocular pressure reduction was −2.8±0.4 mmHg. Besides, the “NO concentration increase in aqueous humor” value in assay [1] (3 hours after instillation) is listed as “greatest NO concentration increase”. For the same molecule, the “expression of angiogenin in tear” value with angiogenin (human, short-term, 6 hours after instillation of 0.0005% Latanoprost, before instillation 42.2±9.1%) is reported as 62.5±10.2%. Moreover, the “long-term angiogenin concentration in tear” value in the assay on angiogenin (newly diagnosed glaucoma patients, after two months of instillation once a day, 0.0005% Latanoprost, before instillation 60.5±10.8%) was determined as 81.2±11.5%.
